Data set [1] has as its target T1, WT-HBc capsids (hepatitis B core protein) (Hepatitis B virus genotype D subtype ayw, UniProt P03146).
T1 construct: these predictions are also valid for full-length variants with randomly packaged host–RNA; made in house; host or cells: E. coli BL21 (DE3) Star
The format is binding, Hepatitis B virus (genotype D; strain ayw). The following applies: for KD: N-terminally unmodified, terminally amidated peptides, dnb = did not bind HBc, SLLGRM fitted with stoichiometry fixed to 0.25.

Another data set has as its system WT-HBc capsids. The following applies: GRMKG added at 10-fold molar excess; SLLGRM sample taken at the end of the ITC experiment (more than 95% of binding sites occupied). (In ITC the heat of successive injections is recorded.)
The conditions of data set [2]: for solubility (soluble up to): no buffer stated at this place, peptides were dissolved in ITC dialysis buffer, pH 7.5.
A further data set addresses L60V-HBc capsids (Hepatitis B virus genotype D subtype ayw, UniProt P03146, L60V). As to the kind of experiment: Isothermal titration calorimetry (ITC) of peptide binding to L60V-HBc capsids. Set-up: species or system Hepatitis B virus (genotype D; strain ayw). The following applies: 20 °C, ITC buffer 2, stoichiometry fixed to 0.5, mean ± SD of 3 repeats.
In the next data set the target is F97L-HBc capsids (Hepatitis B virus genotype D subtype ayw, UniProt P03146, F97L). As to the kind of experiment: Isothermal titration calorimetry (ITC) of peptide binding to F97L-HBc capsids. More on the design: species or system Hepatitis B virus (genotype D; strain ayw). As to conditions: 20 °C, ITC buffer 2, mean ± SD of 5 repeats.
The next data set addresses P5T-HBc capsids (Hepatitis B virus genotype D subtype ayw, UniProt P03146, P5T). The experiment in a line: Isothermal titration calorimetry (ITC) of peptide binding to P5T-HBc capsids. The following applies: 20 °C, ITC buffer 2, mean ± SD of 6 repeats. More on the design: species or system Hepatitis B virus (genotype D; strain ayw).
[3] abbreviates: ITC, 20 °C, ITC buffer 2, single repeat, ± fit error.
Setting [4] is: ITC, 37 °C, ITC buffer 1, single repeat, ± fit error.
[5] abbreviates: ITC, 20 °C, ITC buffer 2, mean ± SD of 6 repeats.

“Also recorded” adds a separate entry of the source. Where two headings read alike, the source gives them in different places. Ends that are not written are not given here.

Take GRMKG: the KD result in data set [1] (setting [3]) was “no measurable affinity and dnb”. The “association of peptide with capsids in the cryo-EM map” value in the data set on WT-HBc capsids was “no association”.
Regarding SLKGRM, in data set [1] (setting [3]), the KD result is “no binding detected and dnb”.
Take SLLGEM: in data set [1] (setting [3]), the KD entry was “no binding detected and dnb”.
Consider `CSCC[C@H](NC(=O)[C@H](CCCNC(=N)N)NC(=O)CNC(=O)[C@H](CC(C)C)NC(=O)[C@H](CC(C)C)NC(=O)[C@H](CO)NC(=O)[C@H](CCCNC(=N)N)NC(=O)[C@H](Cc1c[nH]cn1)NC(=O)[C@@H](N)CCSC)C(=O)N[C@@H](CCCCN)C(=O)NCC(=O)N[C@@H](C)C(N)=O` [P1], for which the “∆ST” value in data set [1] (ITC, 37 °C, ITC buffer 1, single repeat) is -2.5 kcal/mol. Besides, in data set [1] (setting [4]), the “Ratio Peptide/HBc” value is given as 0.45 ± 0.02 and the “∆H” value was -9.0 ± 0.6 kcal/mol. Moreover, in data set [1] (in words, endothermic contribution at higher P1 concentrations in ITC (37 °C, ITC buffer 1) attributed to aggregation), the “aggregation of HBc capsids caused by the peptide” value was “aggregation of P1 and capsids; also recorded: causes aggregation of HBc capsids”. Besides, the “solubility (soluble up to)” value in data set [2] is listed as “up to 8 mM”.
For SLLGRM-NH2 [SLLGRM], in data set [1] (ITC, 20 °C, ITC buffer 2, stoichiometry fixed to 0.25, single repeat), the “∆ST” value is -3.2 kcal/mol. In addition, in data set [1] (ITC, 20 °C, ITC buffer 2, stoichiometry fixed to 0.25, single repeat, ± fit error), the “∆H” value was -8.3 ± 0.2 kcal/mol. Moreover, in the data set on WT-HBc capsids, the “association of peptide with capsids in the cryo-EM map” value is “only the CD spikes bound”.
Consider `CSCC[C@H](NC(=O)[C@H](CCCNC(=N)N)NC(=O)CNC(=O)[C@H](CC(C)C)NC(=O)[C@H](CC(C)C)NC(=O)[C@H](CO)NC(=O)CN)C(=O)N[C@@H](CCCCN)C(=O)NCC(=O)N[C@@H](C)C(N)=O` [P2], for which the “∆H” value in data set [1] (setting [5]) was -14.4 ± 1.6 kcal/mol; at L60V-HBc capsids it was -6.6 ± 1.2 kcal/mol; at F97L-HBc capsids it was -9.9 ± 1.0 kcal/mol; on P5T-HBc capsids, -7.7 ± 0.8 kcal/mol. Besides, the “∆ST” value is -8.8 ± 1.6 kcal/mol in data set [1] (setting [5]), -1.4 ± 1.3 kcal/mol on L60V-HBc capsids, -4.7 ± 0.9 kcal/mol on F97L-HBc capsids and -2.1 ± 0.9 kcal/mol at P5T-HBc capsids. Further, the “solubility compared with the other peptide, in words” value in data set [2] (P2 compared with the longer P1) is “better soluble”. Besides, in data set [2], the “solubility (soluble up to)” value is listed as “up to 8 mM”.

These data come from publication PMC8145704, “Conformational Plasticity of Hepatitis B Core Protein Spikes Promotes Peptide Binding Independent of the Secretion Phenotype” (Microorganisms, 2021).
